From US20100068204A1, “4-ARYLOXYQUINOLIN-2(1H)-ONES AS MTOR KINASE AND PI3 KINASE INHIBITORS, FOR USE AS ANTI-CANCER AGENTS” (Wyeth, priority 2008, published 2010) come the findings set out here.

The structures appear in SMILES notation. Bounds are passed on as bounds.

In test [1] the target is human TOR (FLAG-TOR) (Homo sapiens, UniProt P42345). Briefly: mTOR enzyme assay (DELFIA format, purified enzyme). The test is classed as biochemical. The following applies: 800 ng/ml FLAG-TOR, 100 μM ATP, 1.25 μM His6-S6K; read-out: mTOR Kinase IC50.
Test [2] relates to MDA468 breast tumor cells. Kind of test: In vitro cell growth assay (MTS), MDA468. The test is classed as cell-based, human. The note with it: Homo sapiens, 72 h, three days after drug treatment. On the procedure:
(§1) Cell lines used were human adenocarcinoma (LoVo), […], prostate (LNCap), breast (MDA468, MCF7), colon (HCT116), renal (HTB44 A498), and ovarian (OVCAR3) tumor cell lines. The tumor cells were plated in 96-well culture plates at approximately 3000 cells per well. One day following plating, various concentrations of inhibitors in DMSO were added to cells (final DMSO concentration in cell assays was 0.25%). Three days after drug treatment, viable cell densities were determined by cell mediated metabolic conversion of the dye MTS, a well-established indicator of cell proliferation in vitro. Cell growth assays were performed using kits purchased from Promega Corporation (Madison, Wis.), following the protocol provided by the vendor. Measuring absorbance at 490 nm generated MTS assay results. Compound effect on cell proliferation was assessed relative to untreated control cell growth.

Test [3] deals with LNCap prostate tumor cells. Briefly: In vitro cell growth assay (MTS), LNCap. It is filed as cell-based, human. The note with it: Homo sapiens, LNCaP, 72 h, three days after drug treatment. Here is the method: as §1
Test [4] addresses PI3Kα (Homo sapiens, UniProt P42336). Briefly: PI3Kα fluorescence polarization assay. The test is classed as biochemical. The following applies: 20 μM PIP2, 25 μM ATP. Here is the method: The reaction buffer was 20 mM HEPES pH7.5, 2 mM MgCl2, 0.05% CHAPS, and 0.01% βME (added fresh). The substrate solution was 40 μM PIP2 (diC8, Echelon, Salt Lake City Utah cat #P-4508, 1 mM in water) and 50 μM ATP in the reaction buffer. Nunc 384-well black polypropylene fluorescent plates were used for PI3K assays. The assay is run by putting 9.5 μl of freshly diluted enzyme in the reaction buffer per well, adding 0.5 μl of diluted drug or DMSO, and mixing. Then 10 μl of the substrate solution is added to each well to start the reaction. A final concentration of 20 μM PIP2 and 25 μM ATP in the reaction was used. Reactions were allowed to proceed for 30-60 minutes at room temperature. After 30-60 minutes, 20 μl of a solution of 10 nM TAMRA detector (Red detector probe-Echelon) and 2.5 uM of GST-murine GRP (1.5 mg/ml in 17% glycerol) was added per well to stop the reaction. The resulting solution was mixed well and allowed to stand for 90-110 minutes before reading plate. Assay Plates were read on Perkin-Elmer Envision plate readers with appropriate filters for Tamra [BODIPY-TMRI(1,3,4,5)P4]. Data obtained were used to calculate enzymatic activity and enzyme inhibition by inhibitor compounds. It is important to keep Red probe solutions dark. This procedure is adapted from Echelon Biosciences Inc procedure for their PI3-Kinase fluorescence polarization activity Assay kit Product number K-1100.

PI3Kα, sequence (P42336 whole entry, species assumed): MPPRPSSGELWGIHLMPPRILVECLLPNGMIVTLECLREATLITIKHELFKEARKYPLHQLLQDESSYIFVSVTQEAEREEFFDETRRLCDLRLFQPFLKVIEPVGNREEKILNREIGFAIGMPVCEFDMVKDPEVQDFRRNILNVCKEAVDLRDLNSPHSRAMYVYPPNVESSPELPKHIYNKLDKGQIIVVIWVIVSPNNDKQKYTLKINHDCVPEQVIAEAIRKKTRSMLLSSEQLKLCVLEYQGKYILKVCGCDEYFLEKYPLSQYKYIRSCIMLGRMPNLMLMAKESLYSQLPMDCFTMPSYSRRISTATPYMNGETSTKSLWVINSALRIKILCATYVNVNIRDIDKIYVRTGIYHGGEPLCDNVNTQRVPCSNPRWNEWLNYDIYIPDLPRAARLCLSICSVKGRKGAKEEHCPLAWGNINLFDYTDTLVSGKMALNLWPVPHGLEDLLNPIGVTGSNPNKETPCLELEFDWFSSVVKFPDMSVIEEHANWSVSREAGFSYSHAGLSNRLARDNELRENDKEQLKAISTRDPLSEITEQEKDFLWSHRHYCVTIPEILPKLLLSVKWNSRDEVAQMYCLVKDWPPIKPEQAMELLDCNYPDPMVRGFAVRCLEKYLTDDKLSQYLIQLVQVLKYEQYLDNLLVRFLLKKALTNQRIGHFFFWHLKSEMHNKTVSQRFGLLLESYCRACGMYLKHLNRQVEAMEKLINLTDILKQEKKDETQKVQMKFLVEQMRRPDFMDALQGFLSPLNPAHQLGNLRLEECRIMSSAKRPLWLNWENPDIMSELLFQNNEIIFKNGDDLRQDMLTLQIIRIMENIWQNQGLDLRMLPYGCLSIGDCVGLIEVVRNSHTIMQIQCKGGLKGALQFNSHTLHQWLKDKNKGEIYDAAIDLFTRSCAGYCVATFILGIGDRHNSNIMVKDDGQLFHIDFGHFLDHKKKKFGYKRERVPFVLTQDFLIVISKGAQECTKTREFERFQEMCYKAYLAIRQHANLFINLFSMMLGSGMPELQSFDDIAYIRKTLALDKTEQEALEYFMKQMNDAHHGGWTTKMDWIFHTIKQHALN
PI3Kα, sequence (P27986 whole entry partner, species assumed): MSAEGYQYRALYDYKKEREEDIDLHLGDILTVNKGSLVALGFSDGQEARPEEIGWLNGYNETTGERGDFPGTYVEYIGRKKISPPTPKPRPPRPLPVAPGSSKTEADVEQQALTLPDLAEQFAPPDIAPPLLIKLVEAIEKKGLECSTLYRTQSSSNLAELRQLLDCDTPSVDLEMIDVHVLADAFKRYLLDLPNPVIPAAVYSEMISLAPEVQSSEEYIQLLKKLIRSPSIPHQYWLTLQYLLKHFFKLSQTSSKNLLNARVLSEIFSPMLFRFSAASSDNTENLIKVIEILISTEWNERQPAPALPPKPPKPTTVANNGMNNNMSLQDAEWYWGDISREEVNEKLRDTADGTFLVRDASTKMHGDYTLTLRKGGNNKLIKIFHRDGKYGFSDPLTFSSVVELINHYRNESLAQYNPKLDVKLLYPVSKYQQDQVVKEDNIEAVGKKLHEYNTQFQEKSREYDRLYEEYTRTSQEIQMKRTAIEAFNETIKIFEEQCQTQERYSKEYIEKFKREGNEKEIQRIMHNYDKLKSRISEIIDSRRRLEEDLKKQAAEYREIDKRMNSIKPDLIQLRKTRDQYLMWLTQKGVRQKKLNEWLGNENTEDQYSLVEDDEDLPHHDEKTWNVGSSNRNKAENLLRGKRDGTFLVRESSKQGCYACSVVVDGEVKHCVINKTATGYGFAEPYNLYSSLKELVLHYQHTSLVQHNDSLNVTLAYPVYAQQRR

Broadly, the IC50 is the midpoint of a concentration-inhibition curve. In the case of `O=c1cc(Oc2cccc(-c3ccc(NC4CCN(Cc5ccccn5)CC4)cc3)c2)c2ccccc2[nH]1`, the IC50 was 0.11 µM in test [1], 11 µM in test [2], 5.2 µM in test [3] and more than 10 µM in test [4].

Consider `O=c1cc(Oc2cccc(-c3cnn(CCN4CCOCC4)c3)c2)c2ccccc2[nH]1`, for which the IC50 in test [1] is 0.14 µM; in test [2], 10 µM; in test [3], 2.2 µM; in test [4] it was more than 10 µM.

`COC(=O)c1cc(Oc2cc(=O)[nH]c3ccccc23)ccc1OC`: the IC50 was 1.28 µM in test [1], more than 60 µM in test [2], 7.9 µM in test [3] and more than 10 µM in test [4].

For `O=c1cc(Oc2ccc(-c3cn[nH]c3)cc2)c2ccccc2[nH]1`, the IC50 in test [1] was more than 20 µM; in test [2], 60 µM; in test [3], 60 µM; in test [4], 2.17 µM.

`O=c1cc(Oc2ccc3c(c2)OCO3)c2ccccc2[nH]1`: the IC50 in test [1] was 1.5 µM; in test [2], more than 60 µM; in test [3], more than 60 µM; in test [4] it was more than 10 µM.

As for `O=C(NCCO)c1ccc(-c2cccc(Oc3cc(=O)[nH]c4ccccc34)c2)cc1`, the IC50 in test [1] was 0.23 µM; in test [2], more than 60 µM; in test [3], more than 60 µM; in test [4], more than 10 µM.

Consider `O=c1cc(Oc2cccc(OC(F)(F)F)c2)c2ccccc2[nH]1`, for which the IC50 in test [1] was 0.75 µM; in test [2] it was 60 µM; in test [3], 7 µM; in test [4] it was 8 µM.

As to `O=c1cc(Oc2cccnc2)c2ccccc2[nH]1` [drawing 388], the IC50 was 1.16 µM in test [1], more than 60 µM in test [2], more than 60 µM in test [3] and more than 10 µM in test [4].

For `CCOc1ccc(Oc2cc(=O)[nH]c3ccccc23)cc1`, the IC50 in test [1] is more than 20 µM; in test [2] it was more than 60 µM; in test [3] it was more than 60 µM; in test [4], more than 10 µM.

Take `O=c1cc(Oc2ccccc2)c2cc(-c3cccnc3)ccc2[nH]1`: the IC50 in test [1] is 8.5 µM; in test [2] it was more than 60 µM; in test [3], more than 60 µM; in test [4], 7.44 µM.

Regarding `O=c1cc(Oc2ccccc2)c2ccc(-c3cn[nH]c3)cc2[nH]1`, the IC50 in test [1] was more than 20 µM; in test [2], more than 60 µM; in test [3], more than 60 µM; in test [4], 2.76 µM.

In the case of `O=c1cc(Oc2cccc(NC3CCN(Cc4ccncc4)CC3)c2)c2ccccc2[nH]1`, the IC50 is 0.15 µM in test [1], 31 µM in test [2], 6.4 µM in test [3] and more than 10 µM in test [4].

Regarding `CC(=O)N1CCC(C(=O)Nc2ccc3[nH]c(=O)cc(Oc4ccccc4)c3c2)CC1`, the IC50 was more than 20 µM in test [1], more than 60 µM in test [2], more than 60 µM in test [3] and more than 10 µM in test [4].

In the case of `O=c1cc(Oc2cccc(-c3ccc4[nH]ccc4c3)c2)c2ccccc2[nH]1`, the IC50 in test [1] was 0.47 µM; in test [2] it was 23 µM; in test [3] it was 12 µM; in test [4], more than 10 µM.

Take `Cn1cc(-c2ccc(Oc3cc(=O)[nH]c4ccccc34)cc2)cn1`: the IC50 in test [1] is 1.98 µM; in test [2], more than 60 µM; in test [3] it was 1.3 µM; in test [4], 2.28 µM.

On to `O=c1cc(Oc2cccc(OCCO)c2)c2ccccc2[nH]1`, for which the IC50 is 0.34 µM in test [1], more than 60 µM in test [2], 6 µM in test [3] and 12 µM in test [4].

Consider `CC(C)(C)C(=O)Nc1ncccc1CNc1cccc(Oc2cc(=O)[nH]c3ccccc23)c1`, for which the IC50 in test [1] worked out at 0.04 µM; in test [2] it was 2.8 µM; in test [3], 1.3 µM; in test [4], 4.05 µM.

`O=c1cc(Oc2ccc(-c3ccncc3)cc2)c2ccccc2[nH]1`: the IC50 was 0.24 µM in test [1], more than 60 µM in test [2], 1.9 µM in test [3] and 4.88 µM in test [4].

On to `O=c1cc(Oc2ccccc2)c2ccccc2[nH]1`, for which the IC50 in test [1] turned out to be 0.37 µM; in test [2], 60 µM; in test [3] it was 8.88 µM; in test [4], 24.1 µM.

Turning to `O=c1cc(Oc2ccccc2C(F)(F)F)c2ccccc2[nH]1`, the IC50 in test [1] was 1.65 µM; in test [2] it was more than 60 µM; in test [3], more than 60 µM; in test [4] it was 0.308 µM.

Consider `Cc1ccc(Oc2cc(=O)[nH]c3ccccc23)cc1C`, for which the IC50 in test [1] was 0.69 µM; in test [2], more than 60 µM; in test [3], more than 60 µM; in test [4] it was more than 10 µM.

As to `O=c1cc(Oc2cccc(NCc3ccc(-c4cccnc4)cc3)c2)c2ccccc2[nH]1`, the IC50 was 0.09 µM in test [1], 8 µM in test [2], 3.3 µM in test [3] and 7.98 µM in test [4].

As for `CN(Cc1cccnc1)c1cccc(Oc2cc(=O)[nH]c3ccccc23)c1` [drawing 372], the IC50 in test [1] amounted to 0.42 µM; in test [2], 20 µM; in test [3], 13 µM; in test [4], 1.96 µM.

Turning to `N#Cc1ccc(Oc2cc(=O)[nH]c3ccccc23)cc1`, the IC50 in test [1] amounted to 7.6 µM; in test [2], 48 µM; in test [3], 5.5 µM; in test [4], 2.09 µM.

Turning to `O=c1cc(Oc2cccc(NCc3ccc(Cl)nc3)c2)c2ccccc2[nH]1`, the IC50 in test [1] amounted to 0.06 µM; in test [2], 8 µM; in test [3], 3.5 µM; in test [4], 13 µM.

For `CN(C)CCNC(=O)c1cccc(-c2cccc(Oc3cc(=O)[nH]c4ccccc34)c2)c1`, the half-inhibitory concentration (IC50) in test [1] is 0.32 µM; in test [2], 10 µM; in test [3], 10 µM; in test [4] it was more than 10 µM.

For `O=c1cc(Oc2cccc(-c3ccc(NCc4ccncc4)cc3)c2)c2ccccc2[nH]1`, the IC50 in test [1] was 0.7 µM; in test [2] it was more than 60 µM; in test [3], more than 60 µM; in test [4] it was 5.25 µM.

Consider `O=c1cc(Oc2ccccc2)c2ccc(Br)cc2[nH]1`, for which the IC50 in test [1] is more than 20 µM; in test [2] it was more than 60 µM; in test [3], more than 60 µM; in test [4], 5.39 µM.

On to `N#CCc1cccc(Oc2cc(=O)[nH]c3ccccc23)c1`, for which the IC50 in test [1] turned out to be 0.3 µM; in test [2], 22 µM; in test [3] it was 4.2 µM; in test [4] it was 5.8 µM.

As for `Cn1cc(-c2cccc(Oc3cc(=O)[nH]c4ccccc34)c2)cn1`, the IC50 in test [1] was 0.18 µM; in test [2] it was 60 µM; in test [3] it was more than 60 µM; in test [4], more than 10 µM.

Turning to `Nc1ccc(-c2cccc(Oc3cc(=O)[nH]c4ccccc34)c2)cn1`, the IC50 in test [1] was 0.09 µM; in test [2] it was 1.95 µM; in test [3], 23 µM; in test [4], 9 µM.

With `O=c1cc(Oc2cccc(-c3ccc(NC4CCNCC4)cc3)c2)c2ccccc2[nH]1`, the IC50 in test [1] is 0.09 µM; in test [2] it was 3.8 µM; in test [3], 2.3 µM; in test [4], more than 10 µM.

Consider `O=c1cc(Oc2cccc(F)c2)c2ccccc2[nH]1`, for which the IC50 in test [1] is 1.12 µM; in test [2], more than 60 µM; in test [3], more than 60 µM; in test [4], more than 10 µM.

As for `O=c1cc(Oc2cccc(-c3ccnc(N4CCNCC4)c3)c2)c2ccccc2[nH]1`, the IC50 in test [1] was determined as 0.55 µM; in test [2], 8.5 µM; in test [3], 9 µM; in test [4] it was 15 µM.

For `COc1ccccc1Oc1cc(=O)[nH]c2ccccc12`, the IC50 in test [1] was 9.1 µM; in test [2], more than 60 µM; in test [3], more than 60 µM; in test [4], 4.68 µM.

As for `O=c1cc(Oc2ccc(-c3ccoc3)cc2)c2ccccc2[nH]1`, the IC50 is more than 20 µM in test [1], more than 60 µM in test [2], more than 60 µM in test [3] and 1.94 µM in test [4].

As to `O=c1cc(Oc2cccc(NCc3ccc(Oc4ccc(F)cc4)cc3)c2)c2ccccc2[nH]1`, the IC50 in test [1] is 3.5 µM; in test [2], 12 µM; in test [3], 5.3 µM; in test [4], more than 10 µM.
